Experimental data published in patent US10028934B2, “Substituted indazole derivatives active as kinase inhibitiors” (NERVIANO MEDICAL SCIENCES S.R.L., priority 2011, dated 2018).
Structures can show the parent of a compound that is named as a salt.

Experiments:
MOLM-13 cells = assay: In vitro cell proliferation assay, MOLM-13 (CellTiter-Glo); assay type: cell-based; conditions: human acute leukemia cells bearing FLT3-ITD mutation, 72 h
Method: (§1) The human acute leukemia MOLM-13 AND MV-4-11 cells, bearing a FLT3-ITD mutation, were seeded (5000 cells/well) in white 384 well-plates in complete medium (RPMI 1640 plus 10% Fetal bovine serum) and treated with compounds dissolved in 0.1% DMSO, 24 h after seeding. The cells were incubated at 37° C. and 5% CO2 and after 72 h the plates were processed using CellTiter-Glo assay (Promega) following the manufacturer's instruction.
(§2) CellTiter-Glo is a homogenous method based on the quantification of the ATP present, an indicator of metabolitically active cells. ATP was quantified using a system based on luciferase and D-luciferin resultant into light generation. The luminescent signal was proportional to the number of cells present in culture. Briefly, 25 microL/well reagent solution were added to each well and, after 5 minutes shaking, microplates were read by Envision (PerkinElmer) luminometer. Inhibitory activity was evaluated comparing treated versus control data using Symyx Assay Explorer (Symyx Technologies Inc.) program. IC50 was calculated using sigmoidal interpolation curve.

MV-4-11 cells = assay: In vitro cell proliferation assay, MV-4-11 (CellTiter-Glo); assay type: cell-based; conditions: MV4-11; human acute leukemia cells bearing FLT3-ITD mutation, 72 h
Method: as §1, §2

[1] = molecular target: KIT kinase (GST-KIT cytoplasmic domain) (Homo sapiens (Human), UniProt P10721); assay: Biochemical assay for inhibitors of KIT kinase activity; conditions: pre activated enzyme 4 nM, 4.4 microM ATP, 60 minutes at r.t.
Method: The GST-KIT cytoplasmic domain has been expressed in Sf21 cells infected for 66 hrs at 27° C. The recombinant protein has been purified by affinity on GSH-sepharose and eluted with glutathione. […] At the end of the phosphorylation reaction, the not reacted ATP, cold and radioactive, was captured by an excess of dowex ion exchange resin that eventually settled by gravity to the bottom of the reaction plate. […] 500 g of wet resin (SIGMA, custom prepared resin DOWEX 1×8 200-400 mesh, 2.5 Kg) were weighed out and diluted to 2 L in 150 mM sodium formate, pH 3.00. The resin was allowed to settle down overnight and then the supernatant was discarded. After three washes as above over a couple of days, the resin was allowed to settle and two volumes (with respect to the resin volume) were added of 150 mM sodium formate buffer. […] NO: 2). The peptide was purchased from American Peptide Company (Sunnyvale, Calif.). […] An automated station for serial dilutions (Biomek FX, Beckman) was used for producing 1:3 dilutions in 100% DMSO, from line A1 to A10, and for all the compounds in the column. […] The following dispensation into the plates plus 3 cycles of mixing, done by the robot itself, started the kinase reaction. At this point, the correct concentrations were restored for all the reagents. […]

Chain of KIT kinase (GST-KIT cytoplasmic domain) (P10721 544-976): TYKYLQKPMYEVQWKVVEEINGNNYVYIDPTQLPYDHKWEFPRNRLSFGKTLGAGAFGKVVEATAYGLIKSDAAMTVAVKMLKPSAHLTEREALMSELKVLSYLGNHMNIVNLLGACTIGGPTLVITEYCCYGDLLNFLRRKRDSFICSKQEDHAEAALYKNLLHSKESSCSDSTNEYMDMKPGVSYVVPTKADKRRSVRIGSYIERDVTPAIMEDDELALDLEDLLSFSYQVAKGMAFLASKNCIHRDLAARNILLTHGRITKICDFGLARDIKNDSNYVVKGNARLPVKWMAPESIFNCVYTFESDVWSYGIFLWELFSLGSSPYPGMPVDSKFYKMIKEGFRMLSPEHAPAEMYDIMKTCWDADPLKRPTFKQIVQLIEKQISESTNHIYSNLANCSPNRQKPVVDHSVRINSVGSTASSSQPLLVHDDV

`CN1CCN(c2ccc(C(=O)Nc3n[nH]c4cc(OCCOCc5ccc(C(F)(F)F)cc5)ccc34)cc2)CC1` [Cpd. 33, 4-(4-Methyl-piperazin-1-yl)-N-{6-[2-(4-trifluoromethyl-benzyloxy)-ethoxy]-1H-indazol-3-yl}-benzamide] was tested, and the IC50 (MOLM-13 cells) was < 0.05 µM, the IC50 (MV-4-11 cells) was < 0.05 µM and the IC50 [1] was 0.05 µM.
With `C[N+]1([O-])CCN(c2ccc(C(=O)Nc3n[nH]c4cc(OCCOCc5ccccc5)ccc34)cc2)CC1` [Cpd. 14, N-[6-(2-Benzyloxy-ethoxy)-1H-indazol-3-yl]-4-(4-methyl-4-oxy-piperazin-1-yl)-benzamide] the IC50 (MOLM-13 cells) was < 0.05 µM and the IC50 (MV-4-11 cells) was < 0.05 µM.
In the case of `CN1CCN(c2ccc(C(=O)Nc3n[nH]c4cc(OCCOCc5ccc(F)cc5)ccc34)cc2)CC1` [Cpd. 32], the IC50 (MOLM-13 cells) is reported as < 0.05 µM, the IC50 (MV-4-11 cells) is reported as < 0.05 µM and the IC50 [1] is reported as 0.05 µM.
`O=C(Nc1n[nH]c2cc(OCCOCc3ccccc3)ccc12)c1ccc(NCCN2CCOCC2)cc1` [Cpd. 25, N-[6-(2-Benzyloxy-ethoxy)-1H-indazol-3-yl]-4-(2-morpholin-4-yl-ethylamino)-benzamide hydrochloride] was tested, and the IC50 (MOLM-13 cells) was < 0.05 µM and the IC50 (MV-4-11 cells) was < 0.05 µM.
For `CN(C)CCN(C)c1ccc(C(=O)Nc2n[nH]c3cc(OCCOCc4ccccc4)ccc23)cc1` [Cpd. 16, N-[6-(2-Benzyloxy-ethoxy)-1H-indazol-3-yl]-4-[(2-dimethylamino-ethyl)-methyl-amino]-benzamide], the IC50 (MOLM-13 cells) was < 0.05 µM and the IC50 (MV-4-11 cells) was < 0.05 µM.
For `CN1CCN(c2cccc(C(=O)Nc3n[nH]c4cc(OCCOCc5ccccc5)ccc34)c2)CC1` [Cpd. 29, N-[6-(2-Benzyloxy-ethoxy)-1H-indazol-3-yl]-3-(4-methyl-piperazin-1-yl)-benzamide hydrochloride], the IC50 (MOLM-13 cells) was < 0.05 µM and the IC50 (MV-4-11 cells) was < 0.05 µM.
`CN(C)CCCN(C)c1ccc(C(=O)Nc2n[nH]c3cc(OCCOCc4ccccc4)ccc23)cc1` [Cpd. 17, N-[6-(2-Benzyloxy-ethoxy)-1H-indazol-3-yl]-4-[(3-dimethylamino-propyl)-methyl-amino]-benzamide] was tested, and the IC50 (MOLM-13 cells) was 0.087 µM and the IC50 (MV-4-11 cells) was < 0.05 µM.
With `CN1CCN(c2ccc(C(=O)Nc3n[nH]c4cc(OCC#Cc5ccccc5)ccc34)cc2)CC1` [Cpd. 7, 4-(4-Methyl-piperazin-1-yl)-N-[6-(3-phenyl-prop-2-ynyloxy)-1H-indazol-3-yl]-benzamide] the IC50 (MOLM-13 cells) was 0.24 µM and the IC50 (MV-4-11 cells) was 0.11 µM.
For `CN1CCN(c2ccc(C(=O)Nc3n[nH]c4cc(Oc5cccc(F)c5)ccc34)cc2)CC1` [Cpd. 3, N-[6-(3-Fluoro-phenoxy)-1H-indazol-3-yl]-4-(4-methyl-piperazin-1-yl)-benzamide], the IC50 (MOLM-13 cells) was 0.99 µM and the IC50 (MV-4-11 cells) was 0.987 µM.
For `CN1CCC(Oc2ccc(C(=O)Nc3n[nH]c4cc(OCCOCc5ccccc5)ccc34)cc2)CC1` [Cpd. 22, N-[6-(2-Benzyloxy-ethoxy)-1H-indazol-3-yl]-4-(1-methyl-piperidin-4-yloxy)-benzamide], the IC50 (MOLM-13 cells) was 0.065 µM and the IC50 (MV-4-11 cells) was < 0.05 µM.
`CN(C)Cc1ccc(C(=O)Nc2n[nH]c3cc(OCCOCc4ccccc4)ccc23)cc1` [Cpd. 21, N-[6-(2-Benzyloxy-ethoxy)-1H-indazol-3-yl]-4-dimethylaminomethyl-benzamide] gave an IC50 (MOLM-13 cells) of 0.068 µM.
With `CN(C)C1CCN(c2ccc(C(=O)Nc3n[nH]c4cc(OCCOCc5ccccc5)ccc34)cc2)CC1` [Cpd. 15, N-[6-(2-Benzyloxy-ethoxy)-1H-indazol-3-yl]-4-(4-dimethylamino-piperidin-1-yl)-benzamide] the IC50 (MOLM-13 cells) was < 0.05 µM and the IC50 (MV-4-11 cells) was < 0.05 µM.
Compound `CN1CCN(c2ccc(C(=O)Nc3n[nH]c4cc(OC5CCN(Cc6ccccc6)CC5)ccc34)cc2)CC1` [Cpd. 6, N-[6-(1-Benzyl-piperidin-4-yloxy)-1H-indazol-3-yl]-4-(4-methyl-piperazin-1-yl)-benzamide] has an IC50 (MOLM-13 cells) of 0.673 µM and an IC50 (MV-4-11 cells) of 0.163 µM.
With `COc1ccc(COCCOc2ccc3c(NC(=O)c4ccc(N5CCN(C)CC5)cc4)n[nH]c3c2)cc1` [Cpd. 40, N-{6-[2-(4-Methoxy-benzyloxy)-ethoxy]-1H-indazol-3-yl}-4-(4-methyl-piperazin-1-yl)-benzamide] the IC50 (MOLM-13 cells) was < 0.05 µM and the IC50 (MV-4-11 cells) was < 0.05 µM.
`CN1CCN(c2ccc(C(=O)Nc3n[nH]c4cc(Oc5ccc(OCc6ccccc6)cc5)ccc34)cc2)CC1` [Cpd. 4, N-[6-(4-Benzyloxy-phenoxy)-1H-indazol-3-yl]-4-(4-methyl-piperazin-1-yl)-benzamide] was tested, and the IC50 (MOLM-13 cells) was 0.092 µM and the IC50 (MV-4-11 cells) was < 0.05 µM.
In the case of `O=C(Nc1n[nH]c2cc(OCCOCc3ccccc3)ccc12)c1ccc(N2CC(N3CCCC3)C2)cc1` [Cpd. 28, N-[6-(2-Benzyloxy-ethoxy)-1H-indazol-3-yl]-4-(3-pyrrolidin-1-yl-azetidin-1-yl)-benzamide], the IC50 (MOLM-13 cells) is reported as < 0.05 µM and the IC50 (MV-4-11 cells) is reported as < 0.05 µM.
`CN1CCN(c2ccc(C(=O)Nc3n[nH]c4cc(OCc5ccccc5)ccc34)cc2)CC1` [Cpd. 1, N-(6-Benzyloxy-1H-indazol-3-yl)-4-(4-methyl-piperazin-1-yl)-benzamide] showed an IC50 (MOLM-13 cells) of 0.789 µM and an IC50 (MV-4-11 cells) of 0.683 µM.
Work on `CN1CCN(c2ccc(C(=O)Nc3n[nH]c4cc(Oc5ccccc5)ccc34)cc2)CC1` [Cpd. 2, 4-(4-Methyl-piperazin-1-yl)-N-(6-phenoxy-1H-indazol-3-yl)-benzamide] yielded an IC50 (MOLM-13 cells) of 1.16 µM and an IC50 (MV-4-11 cells) of 1.48 µM.
In the case of `CN1CCC(Nc2ccc(C(=O)Nc3n[nH]c4cc(OCCOCc5ccccc5)ccc34)cc2)CC1` [Cpd. 19, N-[6-(2-Benzyloxy-ethoxy)-1H-indazol-3-yl]-4-(1-methyl-piperidin-4-ylamino)-benzamide], the IC50 (MOLM-13 cells) is reported as < 0.05 µM and the IC50 (MV-4-11 cells) is reported as < 0.05 µM.
`CN1CCN(c2ccc(C(=O)Nc3n[nH]c4cc(OCCOCc5ccccc5)ccc34)c(F)c2)CC1` [Cpd. 38, N-[6-(2-Benzyloxy-ethoxy)-1H-indazol-3-yl]-2-fluoro-4-(4-methyl-piperazin-1-yl)-benzamide] was tested, and the IC50 (MOLM-13 cells) was < 0.05 µM and the IC50 (MV-4-11 cells) was < 0.05 µM.
`CN1CCN(c2ccc(C(=O)Nc3n[nH]c4cc(OCc5cccc(Oc6ccccc6)c5)ccc34)cc2)CC1` [Cpd. 5, 4-(4-Methyl-piperazin-1-yl)-N-[6-(3-phenoxy-benzyloxy)-1H-indazol-3-yl]-benzamide] gave an IC50 (MOLM-13 cells) of 0.557 µM and an IC50 (MV-4-11 cells) of 0.513 µM.
For `CN1CCN(c2ccc(C(=O)Nc3n[nH]c4cc(OCCOc5ccccc5)ccc34)cc2)CC1` [Cpd. 10, 4-(4-Methyl-piperazin-1-yl)-N-[6-(2-phenoxy-ethoxy)-1H-indazol-3-yl]-benzamide], the IC50 (MOLM-13 cells) was 0.139 µM and the IC50 (MV-4-11 cells) was 0.118 µM.
In the case of `CN1CCN(c2ccc(C(=O)Nc3n[nH]c4cc(Oc5cccc(OCc6ccccc6)c5)ccc34)cc2)CC1` [Cpd. 9, N-[6-(3-Benzyloxy-phenoxy)-1H-indazol-3-yl]-4-(4-methyl-piperazin-1-yl)-benzamide], the IC50 (MOLM-13 cells) is reported as 0.245 µM and the IC50 (MV-4-11 cells) is reported as 0.101 µM.
Compound `CN1CCN(c2ccc(C(=O)Nc3n[nH]c4cc(OCCOCc5ccccc5)ccc34)c(N3CCN(C)CC3)c2)CC1` [Cpd. 43, N-[6-(2-Benzyloxy-ethoxy)-1H-indazol-3-yl]-2,4-bis-(4-methyl-piperazin-1-yl)-benzamide] has an IC50 (MOLM-13 cells) of 0.24 µM and an IC50 (MV-4-11 cells) of 0.118 µM.
For `CN1CCC(CNc2ccc(C(=O)Nc3n[nH]c4cc(OCCOCc5ccccc5)ccc34)cc2)CC1` [Cpd. 27, N-[6-(2-Benzyloxy-ethoxy)-1H-indazol-3-yl]-4-[(1-methyl-piperidin-4-ylmethyl)-amino]-benzamide], the IC50 (MOLM-13 cells) was < 0.05 µM and the IC50 (MV-4-11 cells) was < 0.05 µM.
For `CN1CCN(c2ccc(C(=O)Nc3n[nH]c4cc(OCCOCc5cccc(C(F)(F)F)c5)ccc34)cc2)CC1` [Cpd. 34, 4-(4-Methyl-piperazin-1-yl)-N-{6-[2-(3-trifluoromethyl-benzyloxy)-ethoxy]-1H-indazol-3-yl}-benzamide], the IC50 (MOLM-13 cells) was < 0.05 µM and the IC50 (MV-4-11 cells) was < 0.05 µM.
`CN1CCN(c2ccc(C(=O)Nc3n[nH]c4cc(OCCOCc5ccccc5)ccc34)cc2)CC1` [Cpd. 11, N-[6-(2-Benzyloxy-ethoxy)-1H-indazol-3-yl]-4-(4-methyl-piperazin-1-yl)-benzamide] was tested, and the IC50 (MOLM-13 cells) was < 0.05 µM and the IC50 (MV-4-11 cells) was < 0.05 µM.
For `CN1CCN(c2ccc(C(=O)Nc3n[nH]c4cc(Oc5ccc(Oc6ccccc6)cc5)ccc34)cc2)CC1` [Cpd. 8, 4-(4-Methyl-piperazin-1-yl)-N-[6-(4-phenoxy-phenoxy)-1H-indazol-3-yl]-benzamide], the IC50 (MOLM-13 cells) was 1.98 µM and the IC50 (MV-4-11 cells) was 2.75 µM.
In the case of `CN1CCN(c2ccc(C(=O)Nc3n[nH]c4cc(OC/C=C/c5ccccc5)ccc34)cc2)CC1` [Cpd. 39, 4-(4-Methyl-piperazin-1-yl)-N-[6-((E)-3-phenyl-allyloxy)-1H-indazol-3-yl]-benzamide], the IC50 (MOLM-13 cells) is reported as 0.081 µM and the IC50 (MV-4-11 cells) is reported as 0.05 µM.
